Reference: patent US12600696B2 (XENIOPRO GMBH, priority 2017, dated 2026)

System: Notch signaling (hNotch1ΔE, human Notch1 receptor) in HeLa cells
Test: Notch reporter assay (luciferase luminescence readout in transfected HeLa cells)
Type: cell-based
Settings: Homo sapiens, 20 hours, relative to DMSO baseline level of 1.0, read-out: AVEw, weighted arithmetic mean of double-normalized Notch-reporter luciferase luminescence values (Activity Range)
In short: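 HeLa cells were transiently transfected for 24 h with membrane-tethered constitutively active hNotch1ΔE, a CSL-promoter Firefly luciferase reporter and constitutive SV40-Renilla luciferase. Compounds were then applied at 10 μM (0.1% DMSO) for 20 h. Firefly/Renilla dual-luciferase ratios were normalized to DMSO control (baseline 1.0), outliers were excluded, and replicate values were averaged across ≥3 independent experiments.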

Row | SMILES | fold induction at 10 µM
1 | O=C(NO)c1cnc(Oc2ccc(C3CCCCC3)cc2)c(F)c1 [Compound 644, 6-(4-Cyclohexylphenoxy)-5-fluoro-N-hydroxynicotinamide] | 1.1 to 1.2
2 | CNC(=O)c1ccc(Oc2ccc(C(F)(F)F)cc2)nc1 [Compound 300, N-methyl-6-(4-(trifluoromethyl)phenoxy)nicotinamide] | 1.1 to 1.2
3 | Oc1ccc(C=Cc2cc(O)cc(O)c2)cc1 [RES, resveratrol, reference compound] | 1.5
4 | O=C(NO)c1ccc(Oc2ccc(C34CC5CC(CC(C5)C3)C4)cc2)c(F)c1 [Compound 544, 4-(4-(Adamantan-1-yl)phenoxy)-3-fluoro-N-hydroxybenzamide] | 1.4 to 1.7
5 | CCC(C)(C)c1ccc(Oc2ccc(C(=O)NO)cc2)cc1 [Compound 171, N-hydroxy-4-(4-(tert-pentyl)phenoxy)benzamide] | 1.1 to 1.2
6 | O=C(NO)c1ccc(Oc2ccc(C3CCCCC3)cc2)nc1 [Compound 284, 6-(4-Cyclohexylphenoxy)-N-hydroxynicotinamide] | 1.7 to 2
7 | O=C(NO)c1ccc(Oc2ccc(C3CC4CCC3CC4)cc2)nc1 (stereo not drawn) [Compound 287, 6-(4-((1s,4s)-bicyclo[2.2.2]octan-2-yl)phenoxy)-N-hydroxynicotinamide] | 1.1 to 1.2
8 | O=C(NO)c1ccc(Oc2ccc(C34CC5CC(CC(C5)C3)C4)cc2)cc1 [Compound 186, 4-(4-(Adamantan-1-yl)phenoxy)-N-hydroxybenzamide] | ≥ 2
9 | CCCc1ccc(Oc2ccc(C(=O)NO)cc2)cc1 [Compound 166, N-hydroxy-4-(4-propylphenoxy)benzamide] | 1.2 to 1.3
10 | NC(=O)c1ccc(Oc2ccc(C3CC4CCC3C4)cc2)cc1 (racemic) [Compound 159, (±)-4-(4-(Bicyclo[2.2.1]heptan-2-yl)phenoxy)benzamide] | 1.1 to 1.2
11 | CCC(C)(C)c1ccc(Oc2ccc(C(=O)NO)cn2)cc1 [Compound 273, N-hydroxy-6-(4-(tert-pentyl)phenoxy)nicotinamide] | 1.2 to 1.3
12 | O=C(NO)c1ccc(Oc2ccc(C3CCCCC3)cc2)cc1 [Compound 182, 4-(4-cyclohexylphenoxy)-N-hydroxybenzamide] | 1.3 to 1.4
13 | O=C(NO)c1ccc(Oc2ccc(C34CC5CC(CC(C5)C3)C4)cc2)nc1 [Compound 288, 6-(4-((3r,5r,7r)-adamantan-1-yl)phenoxy)-N-hydroxynicotinamide] | 1.7 to 2
14 | CC(C)c1ccc(Oc2ccc(C(=O)NO)cn2)cc1 [Compound 272, N-hydroxy-6-(4-isopropylphenoxy)nicotinamide] | 1.7 to 2
15 | CN(C)C(=O)c1ccc(Oc2ccc(C3CCCCC3)cc2)nc1 [Compound 334, 6-(4-cyclohexylphenoxy)-N,N-dimethylnicotinamide] | 1.3 to 1.4
